Data taken from patent US20160137630A1, “INDUCTION OF GATA2 BY HDAC1 AND HDAC2 INHIBITORS” (ACETYLON PHARMACEUTICALS, INC., priority 2014, published 2016).
“Also recorded” adds a separate entry of the source. Read-outs that look alike come from different tables or passages of the source.

How the values were obtained:
[1] = target: T1, HDAC2 (Homo sapiens, UniProt Q92769); test: in vitro biochemical HDAC inhibition assay
[2] = test system: HDACs 4-9; test: in vitro HDAC inhibition assay, HDACs 4-9; assay type: biochemical; settings: concentrations as high as 20 μM; FIG. 20
[3] = test system: BFU-E colonies derived from human bone marrow mononuclear cells; test: % HbG mRNA in BFU-E colonies; assay type: cell-based; settings: FIG. 18A
Source text: Increases in % HbG resulting from HDAC1/2 inhibition were due to increased HbG and decreased HbB (FIGS. 18B, 21D and 21E).

[4] = test system: Gata2; test: Gata2 shRNA knockdown with Compound 001 treatment; assay type: cell-based, human
Experimental: In FIG. 13A-D, expanded hematopoietic progenitors were infected with lentivirus carrying short hairpin RNAs (shRNA) directed against the Gata2 gene (shG2-1, shG2-2) or a non-targeting control shRNA (shCtrl). Transduced cells were selected by puromycin treatment. […] RNA was isolated at the indicated time points and the level of Gata2 mRNA was determined by quantitative real time PCR (QRT-PCR). In FIG. 7A, K562 cells were infected with lentivirus as described above. […] RNA was isolated at indicated time point and the level of Gata2 mRNA was determined by quantitative real time PCR (QRT-PCR). In FIG. 7B, protein levels at Day 3 were determined by Western blot using antibodies against Gata2 and beta-actin as a loading control. […] Data was first normalized to beta-actin control and then expressed relative to vehicle treated cells.
Since Gata2 levels decline during erythroid differentiation (FIGS. 1B and 1C), knockdown experiments were performed entirely in CS1 expansion media, which supports hematopoietic progenitors, and maintained Gata2 mRNA at a constant level in shCtrl cells following infection (FIG. 13B). Gata2 mRNA was reduced by 85% or 50% in shG2-1 or shG2-2 cells, respectively, while Gata2 protein was reduced by 50% by each hairpin, relative to shCtrl cells (FIG. 13B and FIG. 13D).

[5] = test system: HbD promoter; test: Gata2 binding at the β-like globin gene cluster (ChIP-seq, ChIP-QPCR); assay type: cell-based
Source text: The tight temporal correlation between Gata2 and HbG activation following HDAC1/2 inhibition argues that Gata2 may affect the beta-globin locus directly. […] In FIG. 8C, the ChIP-seq results in FIG. 8A were validated in a second experimental series using QRT-PCR and two primer sets directed to the delta globin promoter. A primer set at the beta globin promoter was used as a control. […] This region is suspected in playing a role in switching from fetal to adult globin during development, as naturally occurring deletions of this region are associated with elevated fetal hemoglobin in adults (Sankaran V G, Xu J, Byron R, et al. A functional element necessary for fetal hemoglobin silencing. The New England journal of medicine. 2011; 365(9):807-814.).
To investigate this possibility, the β-like globin gene cluster was looked at in the Gata2 ChIP-seq data described above.

[6] = target: T1, HDAC2

T1 sequence (Q92769 whole entry): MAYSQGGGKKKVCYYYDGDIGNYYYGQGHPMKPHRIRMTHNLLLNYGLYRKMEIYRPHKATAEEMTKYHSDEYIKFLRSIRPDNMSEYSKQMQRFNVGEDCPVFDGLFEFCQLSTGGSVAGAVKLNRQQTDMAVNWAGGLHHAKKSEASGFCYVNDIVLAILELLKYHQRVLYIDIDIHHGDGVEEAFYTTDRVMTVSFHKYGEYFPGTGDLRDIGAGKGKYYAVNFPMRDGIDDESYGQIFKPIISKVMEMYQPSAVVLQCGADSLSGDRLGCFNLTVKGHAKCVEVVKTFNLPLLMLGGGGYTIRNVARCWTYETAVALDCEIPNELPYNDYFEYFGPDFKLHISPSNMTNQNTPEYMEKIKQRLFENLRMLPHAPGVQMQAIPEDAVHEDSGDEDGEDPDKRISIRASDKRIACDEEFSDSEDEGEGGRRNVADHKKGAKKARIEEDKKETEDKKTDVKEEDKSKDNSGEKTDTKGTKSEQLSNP

Compound: Nc1ccc(-c2cccs2)cc1NC(=O)c1ccc2nc(N3CCNCC3)ccc2c1 [Compound 001, N-(2-amino-5-(thiophen-2-yl)phenyl)-2-(piperazin-1-yl)quinoline-6-carboxamide]
- IC50 ([1]; Table 2, read-out: IC50 HDAC2): 15 nM
- IC50 ([1]; pre-incubation time of 24 hours, FIG. 9A, 17B, read-out: IC50 against HDAC2): 18 nM
- inhibition of HDACs 4-9 [2]: negligible inhibitory activity; also recorded: no inhibition
- % HbG [3]: increased % HbG in a dose-dependent manner
- Gata2 mRNA induction ([4]; 1 uM, cells expressing shCtrl): 1.4 fold
- Gata2 protein induction ([4]; 1 uM, cells expressing shCtrl): 5 fold
- reduction of magnitude of HbG mRNA induction relative to shCtrl cells ([4]; shG2-1 and shG2-2 cells): 25%
- increase in Gata2 binding at the HbD promoter region ([5]; ChIP-seq): 1.8 fold
- increase in Gata2 binding at the HbD promoter ([5]; independent ChIP-QPCR experiment): 2 fold
- IC50 [6]: 42 nM
